# How the values were obtained:
# Test in all cases: relative viability (nuclei count vs DMSO), 5 days (fraction); higher = more cells survive
# [1] = tested on: NCI-H2009
# Method in brief: (§1)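 Five library-drug doses in √10 steps were combined with a fixed anchor-drug dose, or a single drug was given alone, by pin tool to lung cancer cell lines in 1536-well plates the day after seeding. Nuclei were stained and counted after 5 days. Relative viability is the nuclei count in treated wells over that in vehicle wells, taken as the median of duplicate plates.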
# [2] = tested on: HOP-62
# Method in brief: as §1
# [3] = tested on: NCI-H1395
# Method in brief: as §1
# [4] = tested on: NCI-H1975
# Method in brief: as §1
# [5] = tested on: NCI-H1437
# Method in brief: as §1
# [6] = tested on: EMC-BAC-2
# Method in brief: as §1
# [7] = tested on: CAL-12T
# Method in brief: as §1
# [8] = tested on: NCI-H522
# Method in brief: as §1
# [9] = tested on: NCI-H1915
# Method in brief: as §1
# [10] = tested on: NCI-H2228
# Method in brief: as §1
# [11] = tested on: NCI-H460
# Method in brief: as §1
# [12] = tested on: COR-L 105
# Method in brief: as §1
# [13] = tested on: SK-LU-1
# Method in brief: as §1
# [14] = tested on: NCI-H23
# Method in brief: as §1
# [15] = tested on: HCC-827
# Method in brief: as §1
# [16] = tested on: NCI-H1792
# Method in brief: as §1
# [17] = tested on: NCI-H1755
# Method in brief: as §1
# [18] = tested on: HARA
# Method in brief: as §1
# [19] = tested on: A-427
# Method in brief: as §1
# [20] = tested on: LCLC-103H
# Method in brief: as §1
# [21] = tested on: SW 1573
# Method in brief: as §1
# [22] = tested on: HCC-366
# Method in brief: as §1
# [23] = tested on: NCI-H1355
# Method in brief: as §1
# [24] = tested on: NCI-H727
# Method in brief: as §1
compound,measurement,setting,value
C[C@@H]1CN(CC(=O)Nc2ccc3c(c2)Cc2cccc(-c4cc(=O)cc(N5CCOCC5)o4)c2S3)C[C@H](C)O1 + O=C(c1cc(Cc2n[nH]c(=O)c3ccccc23)ccc1F)N1CCN(C(=O)C2CC2)CC1 [Olaparib] (partner 8 µM),relative viability,[1]; first compound 0.04 µM,0.71
same,relative viability,[1]; first compound 0.1265 µM,0.691
same,relative viability,[1]; first compound 0.4 µM,0.649
same,relative viability,[1]; first compound 4 µM,0.274
same,relative viability,[2]; first compound 0.04 µM,0.283
same,relative viability,[2]; first compound 0.1265 µM,0.442
same,relative viability,[2]; first compound 0.4 µM,0.452
same,relative viability,[2]; first compound 4 µM,0.0812
same,relative viability,[3]; first compound 0.1265 µM,0.482
same,relative viability,[3]; first compound 0.4 µM,0.506
same,relative viability,[3]; first compound 4 µM,0.458
same,relative viability,[4]; first compound 0.04 µM,0.78
same,relative viability,[4]; first compound 0.1265 µM,0.748
same,relative viability,[4]; first compound 0.4 µM,0.713
same,relative viability,[4]; first compound 4 µM,0.274
same,relative viability,[5]; first compound 0.04 µM,0.613
same,relative viability,[5]; first compound 0.1265 µM,0.635
same,relative viability,[5]; first compound 0.4 µM,0.598
same,relative viability,[5]; first compound 4 µM,0.352
same,relative viability,[6]; first compound 0.04 µM,0.512
same,relative viability,[6]; first compound 0.1265 µM,0.579
same,relative viability,[6]; first compound 0.4 µM,0.513
same,relative viability,[6]; first compound 4 µM,0.263
same,relative viability,[7]; first compound 0.04 µM,0.81
same,relative viability,[7]; first compound 0.1265 µM,0.739
same,relative viability,[7]; first compound 0.4 µM,0.656
same,relative viability,[7]; first compound 4 µM,0.168
same,relative viability,[8]; first compound 0.04 µM,0.612
same,relative viability,[8]; first compound 0.1265 µM,0.667
same,relative viability,[8]; first compound 0.4 µM,0.576
same,relative viability,[8]; first compound 4 µM,0.614
same,relative viability,[9]; first compound 0.04 µM,0.25
same,relative viability,[9]; first compound 0.1265 µM,0.248
same,relative viability,[9]; first compound 0.4 µM,0.265
same,relative viability,[9]; first compound 4 µM,0.182
same,relative viability,[10]; first compound 0.04 µM,0.781
same,relative viability,[10]; first compound 0.1265 µM,0.505
same,relative viability,[10]; first compound 0.4 µM,0.571
same,relative viability,[10]; first compound 4 µM,0.174
same,relative viability,[11]; first compound 0.04 µM,0.506
same,relative viability,[11]; first compound 0.1265 µM,0.444
same,relative viability,[11]; first compound 0.4 µM,0.502
same,relative viability,[11]; first compound 4 µM,0.112
same,relative viability,[12]; first compound 0.04 µM,0.772
same,relative viability,[12]; first compound 0.1265 µM,0.786
same,relative viability,[12]; first compound 0.4 µM,0.822
same,relative viability,[12]; first compound 4 µM,0.647
same,relative viability,[13]; first compound 0.04 µM,0.566
same,relative viability,[13]; first compound 0.1265 µM,0.667
same,relative viability,[13]; first compound 0.4 µM,0.575
same,relative viability,[13]; first compound 4 µM,0.219
same,relative viability,[14]; first compound 0.04 µM,0.352
same,relative viability,[14]; first compound 0.1265 µM,0.317
same,relative viability,[14]; first compound 0.4 µM,0.264
same,relative viability,[14]; first compound 4 µM,0.227
same,relative viability,[15]; first compound 0.04 µM,0.674
same,relative viability,[15]; first compound 0.1265 µM,0.653
same,relative viability,[15]; first compound 0.4 µM,0.678
same,relative viability,[15]; first compound 4 µM,0.438
same,relative viability,[16]; first compound 0.04 µM,0.715
same,relative viability,[16]; first compound 0.1265 µM,0.407
same,relative viability,[16]; first compound 0.4 µM,0.315
same,relative viability,[16]; first compound 4 µM,0.102
same,relative viability,[17]; first compound 0.04 µM,0.845
same,relative viability,[17]; first compound 0.1265 µM,0.918
same,relative viability,[17]; first compound 0.4 µM,0.833
same,relative viability,[17]; first compound 4 µM,0.958
same,relative viability,[18]; first compound 0.04 µM,0.932
same,relative viability,[18]; first compound 0.1265 µM,0.779
same,relative viability,[18]; first compound 0.4 µM,0.87
same,relative viability,[18]; first compound 4 µM,0.22
same,relative viability,[19]; first compound 0.04 µM,0.658
same,relative viability,[19]; first compound 0.1265 µM,0.734
same,relative viability,[19]; first compound 0.4 µM,0.731
same,relative viability,[19]; first compound 4 µM,0.669
same,relative viability,[20]; first compound 0.04 µM,0.71
same,relative viability,[20]; first compound 0.1265 µM,0.739
same,relative viability,[20]; first compound 0.4 µM,0.771
same,relative viability,[20]; first compound 4 µM,0.722
same,relative viability,[21]; first compound 0.04 µM,0.553
same,relative viability,[21]; first compound 0.1265 µM,0.546
same,relative viability,[21]; first compound 0.4 µM,0.495
same,relative viability,[21]; first compound 4 µM,0.21
same,relative viability,[22]; first compound 0.04 µM,0.43
same,relative viability,[22]; first compound 0.1265 µM,0.489
same,relative viability,[22]; first compound 0.4 µM,0.44
same,relative viability,[22]; first compound 4 µM,0.055
same,relative viability,[23]; first compound 0.04 µM,0.783
same,relative viability,[23]; first compound 0.1265 µM,0.699
same,relative viability,[23]; first compound 0.4 µM,0.664
same,relative viability,[23]; first compound 4 µM,0.482
same,relative viability,[24]; first compound 0.04 µM,0.831
same,relative viability,[24]; first compound 0.1265 µM,0.77
same,relative viability,[24]; first compound 0.4 µM,0.835
same,relative viability,[24]; first compound 4 µM,0.64

# From the supplement of paper PMC10307832
